Assay results: ChEMBL document CHEMBL4483862, “Open-source discovery of chemical leads for next-generation chemoprotective antimalarials” (2018)

Tested on: Plasmodium berghei
Assay: Luciferase/luciferin-expressing antifolate-resistant parasites were used to infect a culture of HepG2 cells that were pre-incubated with compounds. Infected hepatocytes emit light due to the luciferase reaction. Assay results are presented as the percent inhibition of light emission compared to control. […]
Format: functional
Conditions: sporozoite; for IC90: read-out: LUCIFERASE INFECTION ASSAY - IC90
[1] = read-out: LUCIFERASE INFECTION ASSAY - IC50

Row | Structure (SMILES) | IC90 [µM] | IC50 [1] [µM] | also measured
1 | CCc1c(C)sc(NC(=O)c2c(-c3ccccc3)noc2C)c1C(=O)OC | > 8.58 |  | IC50 (PBLUC_HILL_SLOPE 4.81, PBLUC_R_SQUARED 0.194, read-out: LUCIFERASE INFECTION ASSAY - IC50): 5.61 µM
2 | CC(C)n1ncc2c(C(=O)Nc3nnc(C(F)(F)F)s3)cc(-c3ccc4c(c3)OCCO4)nc21 | 5.59 |  | IC50 (FFLUC_HILL_SLOPE 2.46, FFLUC_R_SQUARED 0.0818, HEPG2TOX_HILL_SLOPE 10.3, HEPG2TOX_R_SQUARED 0.775, PBLUC_HILL_SLOPE 73.3, PBLUC_R_SQUARED 0.159, read-out: LUCIFERASE INFECTION ASSAY - IC50): 5.42 µM
3 | CC(C)(C)c1cc(/C=C2\C=c3ccccc3=C2O)cc(C(C)(C)C)c1O | > 9.47 |  | IC50 (FFLUC_HILL_SLOPE 9.15, FFLUC_R_SQUARED 0.521, read-out: LUCIFERASE INFECTION ASSAY - IC50): > 9.47 µM
4 | CS(=O)(=O)Nc1cccc(-c2cnc3ccc(Cc4ccc(F)cc4)nn23)c1 | 5.12 |  | IC50 (PBLUC_HILL_SLOPE 7.81, PBLUC_R_SQUARED 0.241, read-out: LUCIFERASE INFECTION ASSAY - IC50): 3.87 µM
5 | O=C(Nc1ccc(-c2nc3ccccc3[nH]2)cc1)c1ccc2c(=O)n3c(nc2c1)CCCCCC3 | 4.15 |  | IC50 (HEPG2TOX_HILL_SLOPE 11.2, HEPG2TOX_R_SQUARED 0.937, PBLUC_HILL_SLOPE 12.6, PBLUC_R_SQUARED 0.815, read-out: LUCIFERASE INFECTION ASSAY - IC50): 3.48 µM
6 | CCOc1ccc(/C=C/C(=O)C(C(N)=O)=C2SCCS2)cc1 | > 10 | > 10 | 
7 | COc1cccc(NC(=O)c2cccc(C3(CNc4cccc(OC(F)(F)F)c4)CC3)c2)c1 | > 10 |  | IC50 (PBLUC_HILL_SLOPE 3.47, PBLUC_R_SQUARED 0.3, read-out: LUCIFERASE INFECTION ASSAY - IC50): 9.2 µM
8 | Cc1onc(-c2c(Cl)cccc2Cl)c1NC(=O)Nc1cscc1S(=O)(=O)C(C)C | > 6.96 |  | IC50 (FFLUC_HILL_SLOPE 2.28, FFLUC_R_SQUARED 0.234, read-out: LUCIFERASE INFECTION ASSAY - IC50): > 6.96 µM
9 | CCCn1c(NC(=O)c2ccccc2SCc2c(C)noc2C)nc2ccccc21 | 9.89 |  | IC50 (FFLUC_HILL_SLOPE 30, FFLUC_R_SQUARED 0.401, HEPG2TOX_HILL_SLOPE 7.23, HEPG2TOX_R_SQUARED 0.341, PBLUC_HILL_SLOPE 15.1, PBLUC_R_SQUARED 0.618, read-out: LUCIFERASE INFECTION ASSAY - IC50): 8.55 µM
10 | CC1C(=O)Nc2ccc(-c3csc(-c4ccc(NC(=O)c5ccco5)cc4)n3)cc21 (stereo not drawn) | > 10 | > 10 | 
11 | Cc1cc(C)c2c(C)c(C(=O)Nc3nc4ccccc4s3)sc2n1 | 1.17 | 0.841 | 
12 | O=C1/C(=C/c2ccc(-n3nncc3C34CC5CC(CC(C5)C3)C4)cc2)CCC/C1=C\c1ccc(-n2nncc2C23CC4CC(CC(C4)C2)C3)cc1 | 4.22 |  | IC50 (FFLUC_HILL_SLOPE 2.2, FFLUC_R_SQUARED 0.872, HEPG2TOX_HILL_SLOPE 3.7, HEPG2TOX_R_SQUARED 0.967, PBLUC_HILL_SLOPE 5.71, PBLUC_R_SQUARED 0.867, read-out: LUCIFERASE INFECTION ASSAY - IC50): 2.87 µM
13 | CCCn1c(SCc2ccccc2F)n[nH]c1=O | > 10 | > 10 | 
14 | CCc1ccc2nc(NC(=O)CN(C)C(=O)c3ccco3)sc2c1 | > 10 | > 10 | 
15 | FC(F)(F)c1cccc(NC(=S)Nc2cccnc2N2CCC(C(F)(F)F)CC2)c1 | > 7.36 | > 7.36 | 
16 | CC1=CC(C)(C)N2C(=O)C3(NCCc4c3[nH]c3ccccc43)c3cc(C)cc1c32 (stereo not drawn) | 3.21 |  | IC50 (HEPG2TOX_HILL_SLOPE 3.19, HEPG2TOX_R_SQUARED 0.903, PBLUC_HILL_SLOPE 11.5, PBLUC_R_SQUARED 0.604, read-out: LUCIFERASE INFECTION ASSAY - IC50): 2.66 µM
17 | CC(=O)C1=NN(c2ccccc2)C(c2ccccc2OCc2ccccc2)N1c1ccc(N2CCOCC2)cc1 (stereo not drawn) | > 10 |  | IC50 (FFLUC_HILL_SLOPE 2.34, FFLUC_R_SQUARED 0.456, PBLUC_HILL_SLOPE 2.53, PBLUC_R_SQUARED 0.447, read-out: LUCIFERASE INFECTION ASSAY - IC50): 9.41 µM
18 | COc1cc(-c2cc(-c3ccc(S(C)(=O)=O)cc3)cnc2N)ccc1O | 1.1 |  | IC50 (HEPG2TOX_HILL_SLOPE 0.691, HEPG2TOX_R_SQUARED 0.303, PBLUC_HILL_SLOPE 2.60E+03, PBLUC_R_SQUARED 0.903, read-out: LUCIFERASE INFECTION ASSAY - IC50): 1.1 µM
19 | NC(Cc1ccc(F)cc1)c1csc(NC(=O)Nc2ccc(OC(F)(F)F)cc2)n1 (stereo not drawn) | 5.69 |  | IC50 (HEPG2TOX_HILL_SLOPE 9.82, HEPG2TOX_R_SQUARED 0.883, PBLUC_HILL_SLOPE 24.7, PBLUC_R_SQUARED 0.388, read-out: LUCIFERASE INFECTION ASSAY - IC50): 5.2 µM
20 | O=C(/C=C/C1=C(N2CCOCC2)C(=C\c2ccc(Cl)cc2)/CC1)C(F)(F)F | > 10 | > 10 | 

Row | Structure (SMILES) | IC90 [µM] | IC50 [1] [µM] | also measured
21 | CN(C)C(CNC(=O)c1cc(C2CC2)nn1-c1ccccc1)Cc1ccccc1 (stereo not drawn) | > 10 | > 10 | 
22 | Cc1ccc(O)c(C(=O)c2cn/c(=N\c3ccccc3)n(-c3ccccc3)c2)c1 | 4.08 |  | IC50 (PBLUC_HILL_SLOPE 10.6, PBLUC_R_SQUARED 0.86, read-out: LUCIFERASE INFECTION ASSAY - IC50): 3.32 µM
23 | Nc1nc(C2COc3ccccc3O2)ncc1S(=O)(=O)c1ccc(Cl)cc1 (stereo not drawn) | > 8.17 |  | IC50 (PBLUC_HILL_SLOPE 11.1, PBLUC_R_SQUARED 0.295, read-out: LUCIFERASE INFECTION ASSAY - IC50): 7.39 µM
24 | O=C(Nc1ccc2c(c1)OC1(CCCCC1)O2)c1ccc[nH]c1=S | 4.02 |  | IC50 (PBLUC_HILL_SLOPE 0.703, PBLUC_R_SQUARED 0.661, read-out: LUCIFERASE INFECTION ASSAY - IC50): 0.176 µM
25 | CCOc1ccccc1C(=O)N(C)Cc1nc(-c2ccccc2)no1 | > 9.78 | > 9.78 | 
26 | N#Cc1c(Cl)cccc1N1CCOCC1 | > 14.8 |  | IC50 (FFLUC_HILL_SLOPE 1.9, FFLUC_R_SQUARED 0.649, HEPG2TOX_HILL_SLOPE 2.33, HEPG2TOX_R_SQUARED 0.905, PBLUC_HILL_SLOPE 3.58, PBLUC_R_SQUARED 0.165, read-out: LUCIFERASE INFECTION ASSAY - IC50): 14.1 µM
27 | O=C(Nc1ccc2c[nH]nc2c1)C1=NN(c2ccccc2)C(=O)CC1 | > 9.9 | > 9.9 | 
28 | CN(Cc1ccc2c(c1)OCO2)c1ccc(C(=O)NC2CC2)cn1 | > 10 |  | IC50 (PBLUC_HILL_SLOPE 3.82, PBLUC_R_SQUARED 0.17, read-out: LUCIFERASE INFECTION ASSAY - IC50): 6.72 µM
29 | O=C(c1nn(-c2ccccc2)c2c1CCC2)N1CCn2c1nc1ccccc12 | > 10 | > 10 | 
30 | COc1cc(-c2cc(NCc3cccc(C(F)(F)F)c3)ncn2)cc(OC)c1OC | > 7.87 |  | IC50 (FFLUC_HILL_SLOPE 0.883, FFLUC_R_SQUARED 0.362, PBLUC_HILL_SLOPE 0.944, PBLUC_R_SQUARED 0.459, read-out: LUCIFERASE INFECTION ASSAY - IC50): 0.859 µM
31 | COc1ccccc1C(=O)c1cnc(Nc2cccc(Oc3ccccc3)c2)[nH]1 | 3.37 |  | IC50 (HEPG2TOX_HILL_SLOPE 2.29, HEPG2TOX_R_SQUARED 0.975, PBLUC_HILL_SLOPE 12.2, PBLUC_R_SQUARED 0.607, read-out: LUCIFERASE INFECTION ASSAY - IC50): 2.81 µM
32 | Cc1c(C)n(Cc2ccccc2)c2ncn3nc(-c4ccccn4)nc3c12 | > 9.31 | > 9.31 | 
33 | Cc1cccc(-[n+]2c(C)cc(C=C3Sc4ccc5ccccc5c4N3C)cc2C)c1 | 0.685 |  | IC50 (HEPG2TOX_HILL_SLOPE 1.04, HEPG2TOX_R_SQUARED 0.832, PBLUC_HILL_SLOPE 4.15, PBLUC_R_SQUARED 0.768, read-out: LUCIFERASE INFECTION ASSAY - IC50): 0.403 µM
34 | Cc1ccc(Nc2nc(C[N+]3(Cc4csc(Nc5ccc(C)cc5)n4)CCN(Cc4ccc(C#N)cc4)CC3)cs2)cc1 | > 10 |  | IC50 (HEPG2TOX_HILL_SLOPE 1.4, HEPG2TOX_R_SQUARED 0.751, PBLUC_HILL_SLOPE 1.26, PBLUC_R_SQUARED 0.51, read-out: LUCIFERASE INFECTION ASSAY - IC50): 1.97 µM
35 | O=C(Nc1cccc(Cl)c1)C1CCN(c2ccc(C(F)(F)F)cn2)CC1 | > 8.6 |  | IC50 (FFLUC_HILL_SLOPE 11.3, FFLUC_R_SQUARED 0.5, read-out: LUCIFERASE INFECTION ASSAY - IC50): > 8.6 µM
36 | O=C(/C=C/c1cn(-c2ccccc2)nc1-c1ccncc1)c1cccc(N2CCCC2=O)c1 | > 10 |  | IC50 (HEPG2TOX_HILL_SLOPE 7.23, HEPG2TOX_R_SQUARED 0.576, PBLUC_HILL_SLOPE 3.48, PBLUC_R_SQUARED 0.189, read-out: LUCIFERASE INFECTION ASSAY - IC50): 9.57 µM
37 | Cc1ccc(S(=O)(=O)Nc2ccc(C(=O)Nc3ccccc3O)cc2)cc1C | 2.52 |  | IC50 (PBLUC_HILL_SLOPE 2.83, PBLUC_R_SQUARED 0.529, read-out: LUCIFERASE INFECTION ASSAY - IC50): 1.16 µM
38 | CC(C)N1/C(=C\c2ccccc2O)C(=O)c2ccccc2S1(=O)=O | > 9.61 |  | IC50 (HEPG2TOX_HILL_SLOPE 2.04, HEPG2TOX_R_SQUARED 0.975, PBLUC_HILL_SLOPE 1.99, PBLUC_R_SQUARED 0.616, read-out: LUCIFERASE INFECTION ASSAY - IC50): 3.26 µM
39 | NC(=O)c1cccc(-c2ccc3ncc(-c4cccc(O)c4)n3n2)c1 | 7.72 |  | IC50 (HEPG2TOX_HILL_SLOPE 3.39, HEPG2TOX_R_SQUARED 0.986, PBLUC_HILL_SLOPE 6.74, PBLUC_R_SQUARED 0.592, read-out: LUCIFERASE INFECTION ASSAY - IC50): 5.57 µM
